This is an account of results in patent US20050202513A1.

The structures appear in SMILES notation. Entries after “also recorded” stand apart in the source; their conditions may differ. Where a name gives a salt, the structure may show the parent alone.

The test system of data set [1] is cancer patient. Kind of data set: Echocardiogram analysis, ejection fraction of the heart. The class given is in vivo, human. Particulars: cancer patient administered with adriamycin, healthy volunteer not less than 60%. The procedure:
By the echocardiogram analysis, the heart pump function was evaluated based on the ejection fraction (EF) of the heart as calculated by the following formula: Ejection fraction (%)={(left ventricular relaxation terminal diameter^2−left ventricular contraction terminal diameter^2)/left ventricular relaxation terminal diameter^2)×100
The ejection fraction of healthy volunteers is known to be not less than 60%.

Data set [2] concerns cancer patient. Kind of data set: Electrocardiogram analysis. The class given is in vivo, human. The settings on record: adriamycin patient.
In data set [3] the test system is cancer patient. In words: Blood Troponin T level, sandwich ELISA. Particulars: cut-off 0.1 ng/mL. (In general: ELISA stands for enzyme-linked immunosorbent assay.)
Data set [4] deals with cancer patient. Kind of data set: Measurement of creatine kinase in blood.
Data set [5] deals with cancer patient. In words: Blood Myosin Light Chain I level, sandwich RIA. The settings on record: cut-off 2.5 ng/mL.
In data set [6] the test system is cancer patient. Kind of data set: Blood serum human H-FABP level, sandwich ELISA (MARKIT M H-FABP kit). Particulars: cut-off 6.2 ng/mL.
Data set [7] deals with cancer patient. In words: Clinical diagnosis of cardiac function. It counts as in vivo, human. Particulars: cancer patient administered with daunorubicin hydrochloride; expression of generalized edema. As to the method:
The second blood sampling in the Table was performed one month after the first blood sampling.

Where [8] appears, read: adriamycin patient, first blood sampling.
[9] abbreviates: adriamycin patient, second blood sampling.
[10] abbreviates: adriamycin patient, third blood sampling.
Setting [11] is: daunorubicin hydrochloride patient, first blood sampling.
Where [12] appears, read: daunorubicin hydrochloride patient, second blood sampling (one month after the first).

Turning to `COc1cccc2c1C(=O)c1c(O)c3c(c(O)c1C2=O)C[C@@](O)(C(=O)CO)C[C@@H]3O[C@H]1C[C@H](N)[C@H](O)[C@H](C)O1` [adriamycin, Doxorubicin hydrochloride], the entries for the “EF (ejection fraction)” value in data set [1] (first blood sampling) and in data set [1] (third blood sampling (20 days after the second)) were 53% and 37%, respectively. In addition, the Electrocardiogram finding result in data set [2] (about 1 week before the third blood sampling, hydrochloride) is “T wave decreased; also recorded: sinus tachycardia and supraventricular extrasystole”; in data set [2] (about 2 weeks before the first blood sampling), “extension of QTc”. Moreover, the “Blood concentration Troponin T” value in data set [3] (setting [8]) is listed as less than 0.01 ng/mL; in data set [3] (setting [9]), 0.01 ng/mL; in data set [3] (setting [10]), 0.41 ng/mL. For the same compound, the “Blood concentration Creatine kinase” value in data set [4] (adriamycin patient, first blood sampling, healthy 25-180 U/L (male), 20-150 U/L (female)) is listed as 37 U/L; in data set [4] (adriamycin patient, second blood sampling (about 2.5 months after the first)), 36 U/L; in data set [4] (adriamycin patient, third blood sampling (20 days after the second)) it was 33 U/L. Further, the “Blood concentration Myosin Light Chain I” value in data set [5] (setting [8]), in data set [5] (setting [9]) and in data set [5] (setting [10]) was less than 1.0 ng/mL throughout. In addition, the “Blood concentration Human H-FABP” value was 6.8 ng/mL in data set [6] (adriamycin patient, blood serum, first blood sampling); 9.0 ng/mL in data set [6] (adriamycin patient, blood serum, second blood sampling (about 2.5 months after the first)); 19.6 ng/mL in data set [6] (adriamycin patient, blood serum, third blood sampling (20 days after the second)).
Take `COc1cccc2c1C(=O)c1c(O)c3c(c(O)c1C2=O)C[C@@](O)(C(C)=O)C[C@@H]3O[C@H]1C[C@H](N)[C@H](O)[C@H](C)O1` [daunorubicin hydrochloride]: in data set [7], the Diagnosis result is “cardiac failure”. For the same compound, the “Blood concentration Troponin T” value in data set [3] (setting [11]) and in data set [3] (setting [12]) was less than 0.01 ng/mL throughout. Besides, the “Blood concentration Creatine kinase” value was determined as 11 U/L in data set [4] (daunorubicin hydrochloride patient with cardiac failure, first blood sampling) and 7 U/L in data set [4] (daunorubicin hydrochloride patient with cardiac failure, second blood sampling (one month after the first)). Besides, the “Blood concentration Myosin Light Chain I” value is listed as less than 1.0 ng/mL in data set [5] (setting [11]) and 1.4 ng/mL in data set [5] (setting [12]). Moreover, the “Blood concentration Human H-FABP” value came to 7.6 ng/mL in data set [6] (setting [11]) and 6.9 ng/mL in data set [6] (setting [12]).
